Tests used:
Format in all cases: in vivo
Persicaria lapathifolia [1] = assay: Herbicide efficacy trial with Colby calculation, Example 3; details: application rate 1000 (ml or gr); for % control observed 13 DAA: 13 days after application; for % control observed 38 DAA: 38 days after application; for % control observed 76 DAA: 76 days after application
Text: (§1) In the context of the present subject matter, the term "synergy" is as defined by Colby S. R. in an article entitled "Calculation of the synergistic and antagonistic responses of herbicide combinations" published in the journal Weeds, 1967, 15, p. 20-22, incorporated herein by reference in its entirety. The action expected for a given combination of three active ingredients can be calculated as follows: E = X + Y−(XY)/(100) [formula] in which E represents the expected percentage of herbicidal control for the combination of the three herbicides at defined doses (for example equal to x, y and z respectively), X is the percentage of herbicidal control observed by aclonifen at a defined dose (equal to x), Y is the percentage of herbicidal control observed by imazamox at a defined dose (equal to y). When the percentage of herbicidal control observed for the combination is greater than the expected percentage, there is a synergistic effect. When the percentage of control observed for the combination is equal to the expected percentage, there is an additive effect and wherein the percentage of herbicidal control observed for the combination is lower than the expected percentage, there is an antagonistic effect.
(§2) Four herbicide treatments were compared: • a) Imazamox 20 g/l + Aclonifen 300 g/l SC formulation (Application Rate of 2.0 l/ha) • b) Imazamox 40 g/l SC + Aclonifen 600 g/l SC tank-mix (Application Rate of 1.0 l/ha + 1.0 l/ha) • c) Imazamox 40 g/l SL formulation (commercially available as Pulsar) (Application Rate of 1.0 l/ha) • d) Aclonifen 600 g/l SC formulation (Application Rate of 1.0 l/ha)
(§3) The above treatments were applied to a variety of weeds. The results are based on a 0 to 100 scale where 0 is no effect and 100 is complete control. Table 5 compares the individual applications aclonifen and imazamox with the tank-mix of the two active ingredients as well as the ready-mix formulation of aclonifen and imazamox.

Sonchus arvensis = assay: Herbicide efficacy trial in sunflower crop, Example 1 (0 to 100 scale); details: avg, n 1
Text: as §2, with “of 1.0 1/ha) • d)” for “of 1.0 l/ha) • d)”
as §3, with “2” for “5”
(§4) The trial detailed in Tables 1-4 were conducted on Sunflower crop in France, Hungary and Romania.

Setaria pumila [2] = assay: as above; details: avg, n 1
Text: as §2, with “of 1.0 1/ha) • d)” for “of 1.0 l/ha) • d)”
as §3, with “2” for “5”
as §4

Calystegia sepium = assay: as above; details: avg, n 1
Text: as §2, with “of 1.0 1/ha) • d)” for “of 1.0 l/ha) • d)”
as §3, with “2” for “5”
as §4

Mercurialis annua = assay: as above; details: avg, n 2
Text: as §2, with “of 1.0 1/ha) • d)” for “of 1.0 l/ha) • d)”
as §3, with “2” for “5”
as §4

Chenopodium album = assay: as above; details: avg, n 6
Text: as §2, with “of 1.0 1/ha) • d)” for “of 1.0 l/ha) • d)”
as §3, with “2” for “5”
as §4

Hibiscus trionum = assay: as above; details: avg, n 2
Text: as §2, with “of 1.0 1/ha) • d)” for “of 1.0 l/ha) • d)”
as §3, with “2” for “5”
as §4

Ambrosia artemisiifolia = assay: as above; details: avg, n 2
Text: as §2, with “of 1.0 1/ha) • d)” for “of 1.0 l/ha) • d)”
as §3, with “2” for “5”
as §4

Persicaria lapathifolia [3] = assay: as above; details: avg, n 1
Text: as §2, with “of 1.0 1/ha) • d)” for “of 1.0 l/ha) • d)”
as §3, with “2” for “5”
as §4

Abutilon theophrasti = assay: as above; details: avg, n 1
Text: as §2, with “of 1.0 1/ha) • d)” for “of 1.0 l/ha) • d)”
as §3, with “2” for “5”
as §4

Amaranthus retroflexus = assay: as above; details: avg, n 2
Text: as §2, with “of 1.0 1/ha) • d)” for “of 1.0 l/ha) • d)”
as §3, with “2” for “5”
as §4

Conyza Canadensis = assay: as above; details: avg, n 1
Text: as §2, with “of 1.0 1/ha) • d)” for “of 1.0 l/ha) • d)”
as §3, with “2” for “5”
as §4

Echinochloa crus-galli = assay: as above; details: avg, n 3
Text: as §2, with “of 1.0 1/ha) • d)” for “of 1.0 l/ha) • d)”
as §3, with “2” for “5”
as §4

Digitaria sanguinalis = assay: as above; details: avg, n 1
Text: as §2, with “of 1.0 1/ha) • d)” for “of 1.0 l/ha) • d)”
as §3, with “2” for “5”
as §4

Fallopia convolvulus = assay: as above; details: avg, n 1
Text: as §2, with “of 1.0 1/ha) • d)” for “of 1.0 l/ha) • d)”
as §3, with “2” for “5”
as §4

Setaria pumila [4] = assay: Herbicide efficacy trial with Colby calculation, Example 2; details: application rate 1000 (ml or gr); for % control observed 41 DAA: 41 days after application; for % control observed 62 DAA: 62 days after application; for % control observed 107 DAA: 107 days after application
Text: as §1
as §2, with “Three” for “Four”, “a)” for “a) Imazamox 20 g/l + Aclonifen 300 g/l SC formulation (Application Rate of 2.0 l/ha) • b)”, “b)” for “c)”, “c)” for “d)”
(§5) The above treatments were applied to a variety of weeds. The results are based on a 0 to 100 scale where 0 is no effect and 100 is complete control. Table 3-4 compares the individual applications of aclonifen and imazamox with the tank of the two active ingredients.
as §4

Persicaria lapathifolia [5] = assay: as above; details: application rate 1000 (ml or gr)
Text: as §1
as §2, with “Three” for “Four”, “a)” for “a) Imazamox 20 g/l + Aclonifen 300 g/l SC formulation (Application Rate of 2.0 l/ha) • b)”, “b)” for “c)”, “c)” for “d)”
as §5, §4

Solanum Nigrum = assay: as above; details: application rate 1000 (ml or gr)
Text: as §1
as §2, with “Three” for “Four”, “a)” for “a) Imazamox 20 g/l + Aclonifen 300 g/l SC formulation (Application Rate of 2.0 l/ha) • b)”, “b)” for “c)”, “c)” for “d)”
as §5, §4

SMILES: COCc1cnc(C2=NC(C)(C(C)C)C(=O)N2)c(C(=O)O)c1 (racemic) [Imazamox SL, 2-[(RS)-4-isopropyl-4-methyl-5-oxo-2-imidazolin-2-yl]-5-methoxymethylnicotinic acid]
- % control observed 13 DAA (Persicaria lapathifolia [1]; 40 g/ha): 79.47%
- % control observed 38 DAA (Persicaria lapathifolia [1]; 40 g/ha): 58.11%
- % control observed 76 DAA (Persicaria lapathifolia [1]; 40 g/ha): 55.50%
- Efficacy (% Control) (Sonchus arvensis; 40 g ai/ha, 1,00 l/ha): 84.6%
- Efficacy (% Control) (Setaria pumila [2]; 40 g ai/ha, 1,00 l/ha): 81.0%
- Efficacy (% Control) (Calystegia sepium; 40 g ai/ha, 1,00 l/ha): 80.5%
- Efficacy (% Control) (Mercurialis annua; 40 g ai/ha, 1,00 l/ha): 69.0%
- Efficacy (% Control) (Chenopodium album; 40 g ai/ha, 1,00 l/ha): 91.0%
- Efficacy (% Control) (Hibiscus trionum; 40 g ai/ha, 1,00 l/ha): 58.1%
- Efficacy (% Control) (Ambrosia artemisiifolia; 40 g ai/ha, 1,00 l/ha): 88.4%
- Efficacy (% Control) (Persicaria lapathifolia [3]; 40 g ai/ha, 1,00 l/ha): 67.9%
- Efficacy (% Control) (Abutilon theophrasti; 40 g ai/ha, 1,00 l/ha): 90.5%
- Efficacy (% Control) (Amaranthus retroflexus; 40 g ai/ha, 1,00 l/ha): 93.3%
- Efficacy (% Control) (Conyza Canadensis; 40 g ai/ha, 1,00 l/ha): 37.5%
- Efficacy (% Control) (Echinochloa crus-galli; 40 g ai/ha, 1,00 l/ha): 85.1%
- Efficacy (% Control) (Digitaria sanguinalis; 40 g ai/ha, 1,00 l/ha): 75.0%
- Efficacy (% Control) (Fallopia convolvulus; 40 g ai/ha, 1,00 l/ha): 92.8%
- % control observed (Setaria pumila [4]; 40 g/ha): 81%
- % control observed 41 DAA (Setaria pumila [4]; 40 g/ha): 20.00%
- % control observed 62 DAA (Setaria pumila [4]; 40 g/ha): 90.00%
- % control observed 107 DAA (Setaria pumila [4]; 40 g/ha): 81.00%
- % control observed (Persicaria lapathifolia [5]; 40 g/ha): 67.90%
- % control observed (Solanum Nigrum; 40 g/ha): 79.45%

SMILES: Nc1c([N+](=O)[O-])ccc(Oc2ccccc2)c1Cl [Aclonifen SC, 2-Chlor-6-nitro-3-phenoxyanilin]
- % control observed 13 DAA (Persicaria lapathifolia [1]; 600 g/ha): 71.02%
- % control observed 38 DAA (Persicaria lapathifolia [1]; 600 g/ha): 44.14%
- % control observed 76 DAA (Persicaria lapathifolia [1]; 600 g/ha): 38.25%
- Efficacy (% Control) (Sonchus arvensis; 600 g ai/ha, 1,00 l/ha): 84.7%
- Efficacy (% Control) (Setaria pumila [2]; 600 g ai/ha, 1,00 l/ha): 20.0%
- Efficacy (% Control) (Calystegia sepium; 600 g ai/ha, 1,00 l/ha): 66.8%
- Efficacy (% Control) (Mercurialis annua; 600 g ai/ha, 1,00 l/ha): 74.7%
- Efficacy (% Control) (Chenopodium album; 600 g ai/ha, 1,00 l/ha): 85.1%
- Efficacy (% Control) (Hibiscus trionum; 600 g ai/ha, 1,00 l/ha): 81.3%
- Efficacy (% Control) (Ambrosia artemisiifolia; 600 g ai/ha, 1,00 l/ha): 78.9%
- Efficacy (% Control) (Persicaria lapathifolia [3]; 600 g ai/ha, 1,00 l/ha): 38.3%
- Efficacy (% Control) (Abutilon theophrasti; 600 g ai/ha, 1,00 l/ha): 50.0%
- Efficacy (% Control) (Amaranthus retroflexus; 600 g ai/ha, 1,00 l/ha): 72.0%
- Efficacy (% Control) (Conyza Canadensis; 600 g ai/ha, 1,00 l/ha): 25.0%
- Efficacy (% Control) (Echinochloa crus-galli; 600 g ai/ha, 1,00 l/ha): 78.1%
- Efficacy (% Control) (Digitaria sanguinalis; 600 g ai/ha, 1,00 l/ha): 62.5%
- Efficacy (% Control) (Fallopia convolvulus; 600 g ai/ha, 1,00 l/ha): 91.0%
- % control observed (Setaria pumila [4]; 600 g/ha): 20%
- % control observed 41 DAA (Setaria pumila [4]; 600 g/ha): 11.00%
- % control observed 62 DAA (Setaria pumila [4]; 600 g/ha): 20.00%
- % control observed 107 DAA (Setaria pumila [4]; 600 g/ha): 20.00%
- % control observed (Persicaria lapathifolia [5]; 600 g/ha): 38.30%
- % control observed (Solanum Nigrum; 600 g/ha): 33.33%
